Reference: US6380267B1, “Composition and method for decreasing neurologic symptomatology” (priority 1999, dated 2002)

Tests used:
Assay type in all cases: in vivo, human
[1] = system: patient who had Parkinson's Disease and severe dyskinesia; assay: Treatment of a Parkinson's Disease patient with severe dyskinesia with sildenafil (Example I); details: one patient
Experimental: A patient who had Parkinson's Disease for twelve years and who suffered from severe dyskinesia affecting all their extremities and their head and neck for five years was treated with the method for decreasing neurologic symptomatology according to the present invention. […] The patient was initially treated with 50 mg of sildenafil per day.

[2] = system: patient who had Parkinson's Disease with tremor at rest and gait disturbance; assay: Treatment of a Parkinson's Disease patient with tremor at rest and gait disturbance with sildenafil (Example II); details: one patient
Experimental: A patient who had Parkinson's Disease for fifteen years and who suffered from tremor at rest and gait disturbance was treated with the method for decreasing neurologic symptomatology according to the present invention. […] The patient was initially treated with 25 mg of sildenafil per day.

[3] = system: patients with Parkinson's Disease and dyskinesias; assay: Treatment of seven patients with Parkinson's Disease and dyskinesias with sildenafil (Example III)
Experimental: Seven additional patients with Parkinson's Disease and dyskinesias were treated with sildenafil at a dose of 25 mg per day in addition to their usual Parkinson's Disease medications. The patents were all Caucasian and ranged in age from between 55 to 70 years. Four of the patients were men and three were women.

[4] = 25 mg sildenafil per day, after five months of treatment, on levodopa

patients reporting facial flushing ([3]; 25 mg per day): one
patients with any worsening of their Parkinson's Disease symptoms ([3]; 25 mg per day): None
Compound: CCCc1nn(C)c2c(=O)[nH]c(-c3cc(S(=O)(=O)N4CCN(C)CC4)ccc3OCC)nc12 [sildenafil]
dyskinesias during treatment ([1]; 50 mg sildenafil per day initially, on levodopa): significantly reduced
signs and symptoms of Parkinson's Disease ([1]; after more than one year of treatment, sildenafil decreased to 25 mg, levodopa 300-400 mg per day): significantly improved
gait disturbance [2, 4]: improved significantly
tremor [2, 4]: ceased
signs and symptoms of Parkinson's Disease ([2]; after more than seven months of treatment, sildenafil 25 mg three times per day, levodopa 250 mg per day): significantly improved
patients with any significant side effects of sildenafil treatment ([3]; 25 mg per day): None
patients with significant improvement in their dyskinesias ([3]; 25 mg per day in addition to usual Parkinson's Disease medications): Five of the seven
